# From patent publication US8927695B2, “Protein-based assays for screening of the IgE-receptor interaction” (The Board of Trustees of the Leland Stanford Junior …, priority 2010, dated 2015)
# T1: FcεRIα (Homo sapiens, UniProt P12319)
# T1 sequence (P12319 26-257): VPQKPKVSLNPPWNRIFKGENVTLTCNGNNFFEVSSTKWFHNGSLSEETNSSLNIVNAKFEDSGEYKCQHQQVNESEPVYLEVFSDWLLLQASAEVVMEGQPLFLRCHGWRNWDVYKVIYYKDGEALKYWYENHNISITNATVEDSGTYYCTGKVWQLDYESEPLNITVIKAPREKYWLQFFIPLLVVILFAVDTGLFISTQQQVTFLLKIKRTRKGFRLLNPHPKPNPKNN
# Assays:
# [1] = target: mutant hormone / mutant receptor (hGH/hGHbp) (Homo sapiens, UniProt P01241+P10912, T201G/W122G); conditions: at a concentration of 100 μM; cited from earlier work
# inflammatory response = conditions: mouse model of acute inflammation; cited from earlier work
# LFA-1/ICAM-1 interaction = LFA-1/ICAM-1 interaction (Homo sapiens, UniProt P05107+P20701); conditions: solid-phase binding assay stated for LFA703; cited from earlier work
# transthyretin (TTR) = transthyretin (TTR) (Homo sapiens, UniProt P02766); conditions: in vitro; cited from earlier work
# [2] = target: T2, 488-labeled 367C IgE-Fc bound to FcεRIα (Homo sapiens, UniProt P01854+P12319, K248C); experiment: fluorescence assay in competitive inhibitor format; type: binding
# T2 construct: starts at amino acid 1 and ends at amino acid 176 of said FcεRIα, using the numbering −25 to 232; made in house; host or cells: IgE-Fc: insect cells (Trichoplusia ni)
# Procedure: Fluorescence Measurement. Samples were monitored by fluorescence using a Synergy 4 Fluorometer (BioTek) in black 96-well Costar fluorescence plates (Corning). Samples were prepared manually by mixing Alexa-488-labelled 367C IgE-Fc in 0.1% Tween-20 and 100 nM BSA, with buffered 50 mM Tris and 50 mM NaCl, pH 8. Fluorescence was measured using an excitation wavelength of 488 nm and emission was monitored at 520 nm. The read-type for typical measurements was Endpoint. All measurements were recorded in duplicate.
# FcεRIα = target: T1, FcεRIα; conditions: natural IgE-receptor interaction; read-out: affinity of the natural receptor interaction; cited from earlier work
Molecule,inhibition of TTR amyloid fibril formation (transthyretin (TTR)),further results
Clc1ccc2nc(C(Cl)(Cl)Cl)[nH]c2c1 [5-Chloro-2-trichloromethyl benzimidazole],–,increase in binding affinity of the mutant hormone to the mutant receptor [1]: more than 1000 fold
CC[C@H](C)C(=O)O[C@H]1C[C@@H](C)C=C2C=C[C@H](C)[C@H](CC[C@H]3C[C@@H](O)CC(=O)N3Cc3ccc4c(CO)c(OC)ccc4c3)[C@H]21 [LFA703],–,inflammatory response (inflammatory response): suppress the inflammatory response; IC50 (LFA-1/ICAM-1 interaction): 200 nM
"O=C(O)c1cccc2c1Oc1c(C(=O)O)cccc1N2c1cccc(C(F)(F)F)c1 [PHENOX, N-(meta-trifluoromethylphenyl)-phenoxazine-4,6-dicarboxylic acid]",potent inhibitors,–
O=C(O)Cc1ccccc1Nc1c(Cl)cccc1Cl [diclofenac],strongly inhibited,–
O=C(O)c1ccccc1Nc1cccc(C(F)(F)F)c1 [flufenamic acid],potently inhibit,–
CC(C(=O)O)c1ccc(-c2ccccc2)c(F)c1 (stereo not drawn) [flurbiprofen],strongly inhibited,–
"O=C(O)c1ccccc1Nc1ccccc1C(F)(F)F [o-FLU, ortho-trifluoromethylphenyl anthranilic acid]",potent inhibitors,–
Oc1ccc(C=Cc2cc(O)cc(O)c2)cc1 [resveratrol],strongly inhibited,–
"unlabeled IgE-Fc: unlabeled wild type human IgE-Fc (Cε3-Cε4) used as competitor (protein, listed as Homo sapiens, PEPTIDE (1)..(223) Wildtype IgE-Fc (C3-C4)) ADPCADSNPRGVSAYLSRPSPFDLFIRKSPTITCLVVDLAPSKGTVNLTWSRASGKPVNHSTRKEEKQRNGTLTVTSTLPVGTRDWIEGETYQCRVTHPHLPRALMRSTTKTSGPRAAPEVYAFATPEWPGSRDKRTLACLIQNFMPEDISVQWLHNEVQLPDARHSTTQPRKTKGSGFFVFSRLEVTRAEWEQKDEFICRAVHEAASPSQTVQRAVSVNPGK",–,direct effect on fluorescence of the dye-labeled IgE-Fc ([2]; control in the absence of FcεRIα): no significant effect; fluorescence recovery / competition of receptor binding ([2]; in the presence of FcεRIα): completely competed; Kd (FcεRIα): ~1 nM
